Consider eleven compounds from patent US20140135310A1, “SULPHONAMIDE DERIVATIVES OF ALICYCLIC AMINES FOR THE TREATMENT OF CENTRAL NERVOUS SYSTEM DISEASES” (Adamed Sp. z o.o., priority 2011, published 2014).

As usually defined, the inhibition is the change of the read-out against control, counted positive when it falls. Usually Ki stands for the dissociation constant of the complex between target and ligand, obtained from inhibition or displacement.

The test system of assay [1] is α1 adrenergic receptors (rat cerebral cortex). The assay can be described thus: Radioligand binding assay, adrenergic α1 receptors. Conditions: test compound 1×10^−6 M. Summed up:
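Values derive from radioligand displacement, with non-specific binding defined by excess cold ligand and detection by scintillation. Hill-fit IC50s were converted to Ki via Cheng-Prusoff using Scatchard-derived Kd; percent inhibition of control specific binding also reported.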

For assay [2], the target named is T1, 5-HT2A receptor (Homo sapiens, UniProt P28223).
T1 construct: purchased PerkinElmer
Description: Radioligand binding assay, serotoninergic 5-HT2A receptors. The note with it: for inhibition at 1 µM: binding assay result in %, Table 5a; for Ki: read-out: Inhibition constants Ki, 5-HT2A. The essentials: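 Competition curves from scintillation-counted specific binding (total minus binding with excess unlabelled ligand) were Hill-fitted to give IC50, converted to Ki via Cheng-Prusoff using Scatchard-derived Kd.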

Assay [3] has as its target T2, α2C adrenergic receptors (Homo sapiens, UniProt P18825).
T2 construct: expressed in transfected cells; host or cells: CHO cells
T2 sequence (P18825 1-462): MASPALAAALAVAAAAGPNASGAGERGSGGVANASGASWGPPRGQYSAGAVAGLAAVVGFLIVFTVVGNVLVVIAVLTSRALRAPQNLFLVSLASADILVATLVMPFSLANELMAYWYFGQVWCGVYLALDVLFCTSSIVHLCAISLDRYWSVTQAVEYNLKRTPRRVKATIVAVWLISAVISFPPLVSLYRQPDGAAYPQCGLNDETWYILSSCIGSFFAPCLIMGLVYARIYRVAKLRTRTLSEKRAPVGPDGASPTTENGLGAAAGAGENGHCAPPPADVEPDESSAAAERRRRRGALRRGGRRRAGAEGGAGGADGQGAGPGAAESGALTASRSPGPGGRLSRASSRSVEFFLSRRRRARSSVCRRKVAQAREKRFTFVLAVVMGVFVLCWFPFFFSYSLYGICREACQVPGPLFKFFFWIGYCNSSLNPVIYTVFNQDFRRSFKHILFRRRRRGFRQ
Description: Radioligand binding assay, adrenergic α2C receptors. Conditions: test compound 1×10^−6 M. The essentials: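 Competitive radioligand binding at human α2C receptors, with scintillation counting. Nonspecific binding defined with excess unlabelled ligand; results given as % inhibition of control specific binding. IC50 from Hill-equation fits of competition curves; Ki via Cheng-Prusoff using radioligand concentration and Scatchard-derived KD.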

In assay [4] the target is dopaminergic receptors D2 (Homo sapiens, UniProt P14416). Description: Radioligand binding assay, dopaminergic D2 receptors. The note with it: for inhibition at 1 µM: binding assay, test compound 1×10^−6 M; for Ki: read-out: Inhibition constants Ki for D2 receptors, D2. The essentials:
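Values derive from competition curves: percent inhibition of control specific binding was fitted by Hill non-linear regression for IC50, and Ki calculated with Cheng–Prusoff from radioligand concentration and KD (Scatchard). Bound ligand was detected by scintillation counting.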

The target of assay [5] is T3, M3 muscarinic receptors (Homo sapiens, UniProt P20309).
T3 construct: expressed in transfected cells; host or cells: CHO cells
Description: Radioligand binding assay, muscarinic M3 receptors. The note with it: test compound 1×10^−6 M. Summed up: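 Radioligand competition binding, detected by scintillation counting; non-specific binding defined with excess unlabelled ligand. Results given as % inhibition of control specific binding; IC50 from Hill-equation fit of competition curves, Ki via Cheng-Prusoff with radioligand KD from Scatchard plot.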

For assay [6], the target named is T4, 5-HT2C receptor (Homo sapiens, UniProt P28335).
T4 construct: expressed in transfected cells; host or cells: HEK-293 cells
T4 sequence (P28335 33-458): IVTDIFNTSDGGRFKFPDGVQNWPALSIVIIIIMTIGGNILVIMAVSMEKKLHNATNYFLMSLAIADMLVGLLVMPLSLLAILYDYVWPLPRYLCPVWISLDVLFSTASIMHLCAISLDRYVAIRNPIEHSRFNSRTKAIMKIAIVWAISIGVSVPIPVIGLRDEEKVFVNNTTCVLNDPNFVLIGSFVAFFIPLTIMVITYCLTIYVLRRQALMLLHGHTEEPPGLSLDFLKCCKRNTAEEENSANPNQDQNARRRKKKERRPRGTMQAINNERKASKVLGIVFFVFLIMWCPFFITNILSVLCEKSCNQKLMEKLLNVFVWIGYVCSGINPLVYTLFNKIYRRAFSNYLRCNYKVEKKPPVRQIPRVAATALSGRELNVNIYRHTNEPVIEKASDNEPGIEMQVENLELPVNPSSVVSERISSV
Description: Radioligand binding assay, serotoninergic 5-HT2C receptors. Conditions: test compound 1×10^−6 M.

Chain of dopaminergic receptors D2 (P14416 whole entry): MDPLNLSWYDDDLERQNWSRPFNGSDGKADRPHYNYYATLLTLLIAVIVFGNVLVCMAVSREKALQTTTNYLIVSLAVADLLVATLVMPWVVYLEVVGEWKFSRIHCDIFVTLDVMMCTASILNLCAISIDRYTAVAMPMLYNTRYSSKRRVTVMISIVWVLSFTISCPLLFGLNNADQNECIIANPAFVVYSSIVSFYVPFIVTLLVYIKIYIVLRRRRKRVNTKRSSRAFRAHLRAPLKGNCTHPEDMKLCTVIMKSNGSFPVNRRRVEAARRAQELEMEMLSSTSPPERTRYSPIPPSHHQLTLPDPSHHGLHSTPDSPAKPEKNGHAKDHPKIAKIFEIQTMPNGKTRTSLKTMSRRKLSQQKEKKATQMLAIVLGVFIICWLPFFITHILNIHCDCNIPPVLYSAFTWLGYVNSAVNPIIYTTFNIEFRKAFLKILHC
T3 sequence (P20309 whole entry): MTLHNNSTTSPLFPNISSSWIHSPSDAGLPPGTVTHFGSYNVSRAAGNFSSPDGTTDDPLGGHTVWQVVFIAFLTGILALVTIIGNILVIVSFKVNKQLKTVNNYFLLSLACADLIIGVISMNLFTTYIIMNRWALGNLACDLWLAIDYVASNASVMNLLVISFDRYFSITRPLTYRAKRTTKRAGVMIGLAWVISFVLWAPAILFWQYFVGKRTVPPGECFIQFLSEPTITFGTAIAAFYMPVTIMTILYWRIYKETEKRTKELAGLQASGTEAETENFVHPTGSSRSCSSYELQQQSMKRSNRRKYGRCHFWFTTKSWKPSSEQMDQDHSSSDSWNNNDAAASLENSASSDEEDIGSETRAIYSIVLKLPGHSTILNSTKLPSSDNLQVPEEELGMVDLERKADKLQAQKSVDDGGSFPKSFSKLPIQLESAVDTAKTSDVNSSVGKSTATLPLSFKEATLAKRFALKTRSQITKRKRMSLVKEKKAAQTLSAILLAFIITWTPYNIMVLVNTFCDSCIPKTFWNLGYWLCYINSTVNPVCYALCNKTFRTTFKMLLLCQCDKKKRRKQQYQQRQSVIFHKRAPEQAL
T1 sequence (P28223 whole entry): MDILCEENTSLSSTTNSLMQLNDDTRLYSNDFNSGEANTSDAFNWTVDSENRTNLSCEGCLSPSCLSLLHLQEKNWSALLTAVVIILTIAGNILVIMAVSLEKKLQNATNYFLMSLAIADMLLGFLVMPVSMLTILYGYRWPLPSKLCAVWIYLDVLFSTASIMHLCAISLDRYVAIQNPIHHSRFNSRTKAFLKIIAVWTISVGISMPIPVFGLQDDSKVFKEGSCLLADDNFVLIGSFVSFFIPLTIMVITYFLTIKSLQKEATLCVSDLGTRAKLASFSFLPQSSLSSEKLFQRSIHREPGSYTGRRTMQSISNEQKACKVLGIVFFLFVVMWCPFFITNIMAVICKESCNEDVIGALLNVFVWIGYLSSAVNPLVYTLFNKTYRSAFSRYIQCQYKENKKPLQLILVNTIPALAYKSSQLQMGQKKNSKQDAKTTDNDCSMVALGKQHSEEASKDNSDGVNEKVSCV

Consider `Cc1cccc(S(=O)(=O)NC2CCN(CCCc3c[nH]c4ccc(Cl)cc34)C2)c1` (stereo not shown) [Compound 86, N-[1-[3-(5-chloro-1H-indol-3-yl)propyl]pyrrolidin-3-yl]-3-methyl-benzenesulphonamide], for which the “α1 [%]” value in assay [1] worked out at 50%. Also, the inhibition at 1 µM in assay [2] came out at 97%; in assay [3], 106%; in assay [4], 93%; in assay [5], 1%.
Regarding `CC1(C)Cc2cccc(OCCN3CCC(NS(=O)(=O)c4cccc(O)c4)C3)c2O1` (stereo not shown) [Compound 107, N-[1-[2-[(2,2-Dimethyl-3H-benzofuran-7-yl)oxy]ethyl]pyrrolidin-3-yl]-3-hydroxybenzenesulphonamide], the “α1 [%]” value in assay [1] is on record as 28%. Moreover, the inhibition at 1 µM is 97% in assay [2]; 77% in assay [3]; 89% in assay [4]; 86% in assay [6]; 8% in assay [5].
As for `CC1(C)Cc2cccc(OCCN3CCC(NS(=O)(=O)c4ccc5ccccc5c4)C3)c2O1` (stereo not shown) [Compound 108, N-[1-[2-[(2,2-Dimethyl-3H-benzofuran-7-yl)oxy]ethyl]pyrrolidin-3-yl]naphthalene-2-sulphonamide], the “α1 [%]” value in assay [1] was 40%. For the same compound, the inhibition at 1 µM is 98% in assay [2], 83% in assay [3], 93% in assay [4] and -4% in assay [5].
Take `O=S(=O)(NC1CCN(CCOc2cccc3ccccc23)C1)c1ccc2ccccc2c1` (stereo not shown) [Compound 116, N-[1-[2-(1-Naphthyloxy)ethyl]pyrrolidin-3-yl]naphthalene-2-sulphonamide]: in assay [1], the “α1 [%]” value came out at 23%. Besides, the inhibition at 1 µM in assay [2] is 96%; in assay [3], 93%; in assay [4], 91%; in assay [5], 9%.
Consider `O=S(=O)(NCC1CN(CCOc2cccc3ccccc23)C1)c1ccc2ccccc2c1` [Compound 122, N-[[1-[2-(1-Naphthyloxy)ethyl]azetidin-3-yl]methyl]naphthalene-2-sulphonamide], for which the “α1 [%]” value in assay [1] is on record as 53%. The inhibition at 1 µM in assay [2] is 83%; in assay [3], 101%; in assay [4], 99%; in assay [6], 98%; in assay [5] it was 30%.
Take `O=S(=O)(NCC1CCN(CCOc2cccc3ccccc23)C1)c1ccc2ccccc2c1` (stereo not shown) [Compound 124, N-[[1-[2-(1-Naphthyloxy)ethyl]pyrrolidin-3-yl]methyl]naphthalene-2-sulphonamide]: the “α1 [%]” value in assay [1] is 33%. Besides, the inhibition at 1 µM in assay [2] is 87%; in assay [3], 95%; in assay [4], 94%; in assay [6], 80%; in assay [5], 49%.
Turning to `Cc1c(S(=O)(=O)NCC2CN(CCCc3noc4cc(F)ccc34)C2)sc2ccc(F)cc12` [Compound 130, 5-Fluoro-N-[[1-[3-(6-fluoro-1,2-benzoxazol-3-yl)propyl]azetidin-3-yl]methyl]-3-methyl-benzothiophene-2-sulphonamide], the “α1 [%]” value in assay [1] is listed as 86%. Moreover, the inhibition at 1 µM turned out to be 100% in assay [2]; 88% in assay [3]; 97% in assay [4]; 89% in assay [6]; 15% in assay [5]. In addition, the Ki in assay [2] was determined as 4.2 nM; in assay [4], 10 nM.
As to `Cc1c(S(=O)(=O)NCC2CN(CCCc3noc4cc(F)ccc34)C2)sc2ccc(Cl)cc12` [Compound 131, 5-Chloro-N-[[1-[3-(6-fluoro-1,2-benzoxazol-3-yl)propyl]azetidin-3-yl]-methyl]-3-methyl-benzothiophene-2-sulphonamide], the “α1 [%]” value in assay [1] is listed as 70%. For the same compound, the inhibition at 1 µM in assay [2] is 99%; in assay [3] it was 92%; in assay [4], 97%; in assay [6], 88%; in assay [5] it was 17%. In addition, the results for the inhibition constant Ki in assay [2] and in assay [4] were 5.5 nM and 19 nM, respectively.
In the case of `O=S(=O)(NCC1CN(CCCc2noc3cc(F)ccc23)C1)c1ccc2scnc2c1` [Compound 132, N-[[1-[3-(6-Fluoro-1,2-benzoxazol-3-yl)propyl]azetidin-3-yl]methyl]-1,3-benzothiazole-5-sulphonamide], the “α1 [%]” value in assay [1] amounted to 86%. In addition, the inhibition at 1 µM was determined as 97% in assay [2]; 73% in assay [3]; 82% in assay [4]; 43% in assay [6]; 10% in assay [5].
For `O=S(=O)(NCC1CN(CCCc2noc3cc(F)ccc23)C1)c1cccc2ccccc12` [Compound 133, N-[[1-[3-(6-Fluoro-1,2-benzoxazol-3-yl)propyl]azetidin-3-yl]methyl]-naphthalene-1-sulphonamide], in assay [1], the “α1 [%]” value was found to be 90%. The inhibition at 1 µM in assay [2] is 95%; in assay [3] it was 91%; in assay [4], 93%; in assay [6], 47%; in assay [5], 17%.
In the case of `O=S(=O)(NCC1CN(CCCc2noc3cc(F)ccc23)C1)c1ccc2ccccc2c1` [Compound 134, N-[[1-[3-(6-Fluoro-1,2-benzoxazol-3-yl)propyl]azetidin-3-yl]methyl]-naphthalene-2-sulphonamide], in assay [1], the “α1 [%]” value amounted to 61%. Further, the inhibition at 1 µM stood at 99% in assay [2]; 87% in assay [3]; 96% in assay [4]; 87% in assay [6]; 34% in assay [5].
